Data on 30 compounds can be found in ChEMBL document CHEMBL1201862, “PubChem BioAssay data set” (2004).

Structures are written as SMILES. Calls of active or inactive are those of the source. Rule as the data show it, for most assays here: actives have a measured EC50 and inactives only a lower limit.

In one test the target is T1, Protein skinhead-1 (Caenorhabditis elegans, UniProt P34707).
T1 sequence (P34707 whole entry): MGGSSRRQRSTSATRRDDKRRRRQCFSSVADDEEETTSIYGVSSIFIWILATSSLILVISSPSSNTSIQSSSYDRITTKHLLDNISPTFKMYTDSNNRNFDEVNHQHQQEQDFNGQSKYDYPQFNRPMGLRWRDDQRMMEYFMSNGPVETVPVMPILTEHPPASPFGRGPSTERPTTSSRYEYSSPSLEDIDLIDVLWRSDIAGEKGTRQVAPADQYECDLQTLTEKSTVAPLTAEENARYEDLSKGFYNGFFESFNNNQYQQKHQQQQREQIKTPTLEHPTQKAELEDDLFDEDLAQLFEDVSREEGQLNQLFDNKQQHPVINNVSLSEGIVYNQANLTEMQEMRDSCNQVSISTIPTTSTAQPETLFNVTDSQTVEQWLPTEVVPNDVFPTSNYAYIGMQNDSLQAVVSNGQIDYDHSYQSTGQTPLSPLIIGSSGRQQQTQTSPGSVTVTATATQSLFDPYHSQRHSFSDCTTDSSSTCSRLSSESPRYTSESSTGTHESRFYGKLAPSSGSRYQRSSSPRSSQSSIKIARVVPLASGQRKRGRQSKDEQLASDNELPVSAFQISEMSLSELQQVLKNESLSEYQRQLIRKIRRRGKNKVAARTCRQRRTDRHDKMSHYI
Type of test: functional.

Test [1] is described as follows: luciferase reporter signal suppression in cells – H4 neuroglioma cells, luminescence, dose response (AID 1990). Type of test: functional, cell-based.
The nature of test [2]: Luminescence Cell-Based Dose Response HTS to Identify Inhibitors of 5'UTR Stem-Loop Driven Prion Protein mRNA Translation in H4 Neuroglioblastoma Cells. [Related pubchem assays: 1827 (Project Summary), 1813 (Primary HTS)]. In kind it is functional.
A short description of test [3]: alpha-synuclein stem-loop luciferase translation blockers – H4 neuroglioma cells, luminescence, confirmation (AID 1988). In kind it is functional, cell-based.
Test [4] concerns the target T2, Carboxy-terminal domain RNA polymerase II polypeptide A small phosphatase 1 (Homo sapiens, UniProt Q9GZU7).
T2 sequence (Q9GZU7 whole entry): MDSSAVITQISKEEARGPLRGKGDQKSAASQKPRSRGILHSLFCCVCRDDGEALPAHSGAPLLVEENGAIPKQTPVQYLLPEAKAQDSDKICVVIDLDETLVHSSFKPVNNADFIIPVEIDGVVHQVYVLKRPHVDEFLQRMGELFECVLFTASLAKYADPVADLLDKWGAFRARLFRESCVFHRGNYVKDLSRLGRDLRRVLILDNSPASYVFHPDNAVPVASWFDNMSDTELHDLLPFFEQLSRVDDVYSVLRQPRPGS
As to the kind of experiment: CTDSP1 inhibitors, concentration-response, biochemical, absorbance readout, ultra-high-throughput screen actives (AID 540297). In kind it is functional.

The target of a further test is Genome polyprotein (dengue virus type 2, UniProt P29990). As to the kind of experiment: flavivirus cap methylation enzyme inhibition – biochemical, confirmation dose response, primary screen (AID 588689). In kind it is functional.
Test [5] concerns the target T3, Replicative DNA helicase DnaB (Mycobacterium tuberculosis, UniProt P9WMR3).
T3 sequence (P9WMR3 whole entry): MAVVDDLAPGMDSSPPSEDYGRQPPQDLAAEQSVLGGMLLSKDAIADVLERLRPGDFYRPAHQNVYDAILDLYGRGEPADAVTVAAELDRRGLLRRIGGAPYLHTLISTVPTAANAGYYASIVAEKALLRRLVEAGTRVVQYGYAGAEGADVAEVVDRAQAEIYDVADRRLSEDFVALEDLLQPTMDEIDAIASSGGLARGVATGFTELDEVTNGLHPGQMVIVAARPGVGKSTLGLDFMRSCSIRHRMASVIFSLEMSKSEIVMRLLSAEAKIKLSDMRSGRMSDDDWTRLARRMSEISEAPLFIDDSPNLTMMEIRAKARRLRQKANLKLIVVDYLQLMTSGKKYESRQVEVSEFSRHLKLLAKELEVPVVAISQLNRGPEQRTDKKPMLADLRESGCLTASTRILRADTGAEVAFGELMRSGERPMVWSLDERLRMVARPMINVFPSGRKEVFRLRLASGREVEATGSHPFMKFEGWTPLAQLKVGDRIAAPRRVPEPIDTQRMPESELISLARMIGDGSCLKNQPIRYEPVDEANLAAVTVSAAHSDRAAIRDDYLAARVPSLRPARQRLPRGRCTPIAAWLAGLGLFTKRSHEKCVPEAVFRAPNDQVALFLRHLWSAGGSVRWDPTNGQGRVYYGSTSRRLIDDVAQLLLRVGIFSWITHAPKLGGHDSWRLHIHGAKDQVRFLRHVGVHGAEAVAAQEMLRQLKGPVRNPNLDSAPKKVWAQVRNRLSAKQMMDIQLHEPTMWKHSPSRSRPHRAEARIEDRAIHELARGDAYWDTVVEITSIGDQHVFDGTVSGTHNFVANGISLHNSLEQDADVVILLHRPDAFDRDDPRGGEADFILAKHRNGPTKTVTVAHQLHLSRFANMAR
In words: DnaB intein splicing inhibitors, dose response, biochemical, cell-free fluorescence (AID 449749). Type of test: functional.

The target in another test is T4, Protein RecA (Mycobacterium tuberculosis, UniProt P9WHJ3).
T4 sequence (P9WHJ3 whole entry): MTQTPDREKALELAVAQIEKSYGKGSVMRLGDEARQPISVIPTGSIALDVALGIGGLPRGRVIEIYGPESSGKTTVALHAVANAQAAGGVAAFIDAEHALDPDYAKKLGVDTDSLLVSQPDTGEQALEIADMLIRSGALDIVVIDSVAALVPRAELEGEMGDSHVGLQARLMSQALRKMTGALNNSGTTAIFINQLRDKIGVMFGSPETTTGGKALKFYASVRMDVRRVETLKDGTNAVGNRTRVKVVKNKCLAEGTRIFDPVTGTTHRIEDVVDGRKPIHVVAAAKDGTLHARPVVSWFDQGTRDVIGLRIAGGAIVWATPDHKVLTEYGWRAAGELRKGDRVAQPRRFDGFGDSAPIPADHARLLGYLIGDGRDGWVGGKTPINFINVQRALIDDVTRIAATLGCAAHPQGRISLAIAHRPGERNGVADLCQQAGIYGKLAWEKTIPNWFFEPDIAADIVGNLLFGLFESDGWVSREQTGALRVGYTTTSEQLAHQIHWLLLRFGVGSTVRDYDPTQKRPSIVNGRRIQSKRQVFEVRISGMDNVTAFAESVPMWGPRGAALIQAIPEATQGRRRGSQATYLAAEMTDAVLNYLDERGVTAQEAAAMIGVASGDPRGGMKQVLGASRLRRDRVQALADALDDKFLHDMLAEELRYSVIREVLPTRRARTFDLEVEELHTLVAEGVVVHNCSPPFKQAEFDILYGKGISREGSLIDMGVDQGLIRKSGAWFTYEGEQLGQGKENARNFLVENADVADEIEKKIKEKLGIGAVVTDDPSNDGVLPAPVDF
As to the kind of experiment: Fluorescence Cell-Free Homogeneous Dose Retest to Identify Inhibitors of RecA-Intein Splicing Activity. [Related pubchem assays (depositor defined):AID2097, AID2223, AID489010, AID492950]. Type of test: functional.

The next test concerns the target Cytochrome P450 3A4 (Homo sapiens, UniProt P08684).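 Also: CYP3A4 tested as one member of a cytochrome P450 panel screen.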
Test [6] is described as follows: Luminescence Cell-Based Dose Response HTS to Identify Activators of Luciferase Translation or Activity in H4 […] Cells. [Related pubchem assays: 1829 (Project Summary), 1814 (Primary HTS)]. Type of test: functional.
For test [7], the system named is Streptococcus sp. 'group A'. As to the kind of experiment: Streptococcus pyogenes SK(-)GAS viability under kanamycin – luminescence, BacTiterGlo, confirmation, counter-screen for streptokinase expression inhibitor project, dose response (AID 1900). In kind it is functional, organism-based. (A counterscreen serves to expose hits that act by an unwanted route or on another target.)

The nature of test [8]: Trypanosoma cruzi growth suppression in host cells – NIH3T3 host cells, beta-gal luminescence, confirmation (AID 2044).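 Also: intracellular parasites grown in NIH/3T3 mouse fibroblasts as host cells; luminescent beta-galactosidase reporter signal from transgenic T. cruzi replicating inside host cells; inhibitors lower the luminescence signal.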 Type of test: functional, cell-based.
A short description of test [9]: NIH3T3 cell viability loss – ATP luminescence, mouse fibroblasts, counter-screen, dose response (AID 2010).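 Also: cells exposed to compound for about 90 hours before reading.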 In kind it is functional, cell-based.
The test system of another test is Streptococcus. As to the kind of experiment: GAS UMAA2166 growth inhibition – luminescence, BacTiterGlo, counter-screen for streptokinase expression inhibitor project, dose response (AID 1915).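 Also: potency for reduction of bacterial viability or growth.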 Type of test: functional, organism-based.
Another test has as its system Vero. As to the kind of experiment: cells. In kind it is functional. The settings on record: Chlorocebus sabaeus.

One may read the IC50 as the concentration needed to halve the response being measured. The term EC50 denotes the concentration needed to bring the measured effect to its halfway point. By AC50 is commonly meant the midpoint of the concentration-response curve, whichever way the signal moves. One may read the CC50 as the concentration that lowers cell viability or growth by half.

Genome polyprotein, sequence (P29990 2492-3391 limits assumed): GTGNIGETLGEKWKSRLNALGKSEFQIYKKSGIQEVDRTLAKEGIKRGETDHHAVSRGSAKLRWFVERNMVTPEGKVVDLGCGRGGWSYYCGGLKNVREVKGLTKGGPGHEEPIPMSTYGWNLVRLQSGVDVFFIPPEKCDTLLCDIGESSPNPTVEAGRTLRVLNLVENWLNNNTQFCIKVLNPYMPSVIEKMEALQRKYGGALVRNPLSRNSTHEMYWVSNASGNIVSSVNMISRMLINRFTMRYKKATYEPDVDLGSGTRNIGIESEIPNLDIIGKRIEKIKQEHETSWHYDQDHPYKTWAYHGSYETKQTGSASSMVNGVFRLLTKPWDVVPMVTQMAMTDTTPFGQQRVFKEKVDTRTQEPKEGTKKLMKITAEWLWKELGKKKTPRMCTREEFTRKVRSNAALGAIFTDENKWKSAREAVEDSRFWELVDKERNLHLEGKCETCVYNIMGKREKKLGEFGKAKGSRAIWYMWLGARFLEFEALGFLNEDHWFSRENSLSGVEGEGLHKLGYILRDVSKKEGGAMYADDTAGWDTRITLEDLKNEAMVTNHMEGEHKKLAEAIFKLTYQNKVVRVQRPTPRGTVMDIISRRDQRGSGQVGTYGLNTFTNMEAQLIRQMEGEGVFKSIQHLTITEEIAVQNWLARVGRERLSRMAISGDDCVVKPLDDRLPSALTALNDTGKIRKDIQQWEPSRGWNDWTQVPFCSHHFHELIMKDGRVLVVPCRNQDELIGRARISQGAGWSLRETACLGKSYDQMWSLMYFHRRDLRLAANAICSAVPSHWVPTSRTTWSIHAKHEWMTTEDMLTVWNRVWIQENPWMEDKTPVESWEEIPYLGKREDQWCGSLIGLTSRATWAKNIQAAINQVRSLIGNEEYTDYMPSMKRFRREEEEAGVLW
Cytochrome P450 3A4, sequence (P08684 whole entry): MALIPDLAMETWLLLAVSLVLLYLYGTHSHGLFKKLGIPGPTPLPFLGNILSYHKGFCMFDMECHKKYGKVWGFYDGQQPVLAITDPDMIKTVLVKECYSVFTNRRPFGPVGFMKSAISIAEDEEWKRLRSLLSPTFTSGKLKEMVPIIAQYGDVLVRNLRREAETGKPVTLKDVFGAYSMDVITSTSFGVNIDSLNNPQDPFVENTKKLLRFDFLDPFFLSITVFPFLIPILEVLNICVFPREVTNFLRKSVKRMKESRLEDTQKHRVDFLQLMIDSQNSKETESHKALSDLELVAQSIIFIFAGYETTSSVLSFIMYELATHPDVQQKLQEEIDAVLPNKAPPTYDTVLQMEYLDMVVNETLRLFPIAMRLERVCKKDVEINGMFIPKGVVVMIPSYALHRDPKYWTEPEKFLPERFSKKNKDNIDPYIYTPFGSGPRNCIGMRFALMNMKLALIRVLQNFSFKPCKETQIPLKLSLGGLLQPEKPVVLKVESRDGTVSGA

As for `C=C(C)c1cccc(C(C)(C)NC(=O)N2CCN(c3ncccn3)CC2)c1`, the IC50 at Protein skinhead-1 was > 100 µM (inactive). For the compound `COc1ccc(OCCn2cc(/C=C(\C#N)C(=O)NCc3ccco3)c3ccccc32)cc1`, the figures for the EC50 in test [1], in [2] and in test [3] were 16.1 µM (active), 27.8 µM (active) and 13.3 µM (active), respectively.

As to `COc1ccc(N2CCN(C(=O)C3CCCN3S(=O)(=O)c3cccc4nsnc34)CC2)cc1` (stereo not given), the EC50 in test [1], in test [2] and in [3] was > 120 µM (not active) throughout.

For `N#Cc1cnn2c1nc(N1CCCCC1)c1ccccc12`, the EC50 was 10.6 µM (active) in [1], 11.3 µM (active) in [2] and 12.7 µM (active) in test [3]. As to `CCOC(=O)C(C)C1(O)c2ccccc2-c2ncccc21` (stereo not given), on Protein skinhead-1, the IC50 is > 100 µM (inactive).

Regarding `O=C(/C=C/c1ccccc1)Nc1ccc(CN2CCOCC2)cc1`, on Protein skinhead-1, the IC50 is 11.4 µM (active). Turning to `CC1(C)C(=O)Nc2ccccc2N1C(=O)COc1ccccc1C#N`, the IC50 in test [4] is 13.2 µM (active). As for `CC(=O)c1ccc(NC(=O)CN2C(=O)COc3ccc(S(=O)(=O)N4CCCC4)cc32)cc1`, the IC50 in test [4] was 6.65 µM (active). Consider `Cc1ccccc1NC(=O)C(=O)NNC(=O)COc1ccc2ccccc2c1`, for which the IC50 in test [4] was 13.1 µM (active). For the compound `Cc1cc(C)cc(NC(=S)N(Cc2ccc(Cl)cc2)Cc2ccc(C(=O)O)cc2)c1`, the IC50 at Genome polyprotein is 92.1 µM (active). Turning to `O=C(CCN1C(=O)/C(=C\c2ccccc2F)SC1=S)Nc1ccc(C(=O)O)c(O)c1`, the AC50 in test [5] was 11.4 µM (active). On Protein RecA, the EC50 was 15.2 µM (active). In addition, the IC50 at Genome polyprotein was 32.5 µM (active). Regarding `COc1ccc(N2CCN(C(S)=Nc3cc(C)cc(C)c3)CC2)cc1`, the EC50 in [1], in test [2] and in [3] was > 120 µM (not active) throughout. For the same compound, at Cytochrome P450 3A4, the AC50 was 2.51 µM (inconclusive). Consider `O=C1c2ccccc2C(=O)c2c(NCc3cccnc3)cccc21`, for which, at Protein skinhead-1, the IC50 is > 100 µM (inactive). For `Cc1ccc(C=Cc2ccccn2)cc1`, the half-inhibitory concentration (IC50) at Protein skinhead-1 was 33.9 µM (active). On to `O=C(c1ccc(-c2cccc(C(F)(F)F)c2)o1)N1CCOCC1`, for which, on Protein skinhead-1, the IC50 is > 100 µM (inactive). Take `COc1cc(/C=C2/C(=O)NN(c3ccc(C)c(Cl)c3)C2=O)cc([N+](=O)[O-])c1O`: the IC50 in [4] is 6.75 µM (active). On to `CC1CCCC(C)N1C(=O)COC(=O)/C=C/c1ccc(Br)o1` (stereo not given), for which the IC50 in test [4] is 19.1 µM (active). For `Cn1/c(=N/C(=O)C2=NNC(=O)CC2)sc2ccccc21`, the EC50 in test [1], in [2] and in test [3] was > 120 µM (not active) in each case.

`CCc1sc(/C=C(/C#N)C(N)=S)cc1[N+](=O)[O-]`: on Genome polyprotein, the IC50 is 33.9 µM (active). For `Oc1nncc(NCCc2ccccc2)c1Cl`, the EC50 in test [1] is 6.91 µM (active); in test [2], 25.9 µM (active); in test [3] it was 14.2 µM (active). Take `O=C(Nc1ccccc1)c1cc2ccccc2c(=O)s1`: the EC50 in [6] was 6.73 µM (active). As to `CCSc1nn2c(=O)c3ccccc3nc2s1`, the EC50 in test [6] is 0.23 µM (active). In the case of `Clc1nc(Cl)nc(-c2cn(-c3ccccc3)c3ccccc23)n1`, the IC50 in test [4] was 7.98 µM (active). Take `Cc1cc(N)ccc1-n1nc2ccccc2n1`: the EC50 was 22.4 µM (active) in test [1], 36.4 µM (active) in test [2] and 35.7 µM (active) in [3]. `CC(O)CC(=O)O` (stereo not drawn) [3-HYDROXYBUTYRIC ACID, (+/-)-]: at Protein skinhead-1, the IC50 is > 100 µM (inactive).

On to `COc1cc(/C=C/c2ccc3cccc(O)c3n2)c(Br)cc1O`, for which the EC50 in test [7] is 0.865 µM (active); in [8] it was 3.92 µM (active); in [9], > 60 µM (not active); with Streptococcus, 2.68 µM (active). For the same compound, the CC50 in the test on Vero was 8.46 µM (active). Consider `O=C(Nc1ccc(Cl)cc1Cl)c1ccc(Br)o1`, for which the IC50 on Protein skinhead-1 is > 100 µM (inactive).

Take `OCCN1CCN(CC/C=C2/c3ccccc3CSc3ccccc32)CC1`: the EC50 in test [1], in test [2] and in test [3] was > 120 µM (not active) in each case. For `O=C1c2ccccc2OC2(C=Cc3ccccc3O2)N1Cc1ccccc1` (stereo not given), the AC50 in [5] is 2.83 µM (active). Besides, the EC50 at Protein RecA was 166 µM (active). For the same compound, on Protein skinhead-1, the IC50 is > 100 µM (inactive).

As for `Cc1cc2c(SCC(=O)Nc3cccc(O)c3)ncnc2s1`, the IC50 in test [4] was 6.88 µM (active).
